Source: PubChem BioAssay AID1259407 (Chemical Carcinogenesis Research Information System (CCRIS), 2018)
Activity calls are given as the source filed them. No rule for the calls is given here.

System: CCRIS mutagenicity, Ames/micronucleus/aberration tests
Assay: CCRIS mutagenicity studies

## CCOS(C)(=O)=O
End Point: IN VITRO MICRONUCLEUS, Test System: CHL/IU CELLS, Metabolic Activation: NONE
  mutagenic call: active; positive
End Point: IN VITRO MICRONUCLEUS, Test System: V79 CELLS, Metabolic Activation: NONE
  mutagenic call: active; positive
End Point: In vitro micronucleus, Test System: Chinese Hamster Ovary (CHO-WBL) cells, Metabolic Activation: None
  mutagenic call: active; positive (p<0.01)
End Point: In vivo micronucleus, Test System: Micronucleated hepatocytes, Species: Rat, Strain/Sex: F344/Male, Route: Intraperitoneal
  mutagenic call: inactive; negative
End Point: In vivo micronucleus, Test System: Micronucleated hepatocytes, Species: Rat, Strain/Sex: F344/Male, Route: Oral
  mutagenic call: inactive; negative
Test System: AMES SALMONELLA TYPHIMURIUM, Strain/Indicator: TA98, Metabolic Activation: NONE, Method: SPIRAL ASSAY
  mutagenic call: inactive; negative
Test System: AMES SALMONELLA TYPHIMURIUM, Strain/Indicator: TA98, Metabolic Activation: NONE, Method: STANDARD PLATE
  mutagenic call: inactive; negative
Test System: AMES SALMONELLA TYPHIMURIUM, Strain/Indicator: TA98, Metabolic Activation: RAT, LIVER, S-9, AROCLOR 1254, Method: SPIRAL ASSAY
  mutagenic call: active; positive
Test System: AMES SALMONELLA TYPHIMURIUM, Strain/Indicator: TA100, Metabolic Activation: NONE, Method: SPIRAL ASSAY
  mutagenic call: active; positive
Test System: AMES SALMONELLA TYPHIMURIUM, Strain/Indicator: TA100, Metabolic Activation: NONE, Method: STANDARD PLATE
  mutagenic call: active; positive
Test System: AMES SALMONELLA TYPHIMURIUM, Strain/Indicator: TA100, Metabolic Activation: RAT, LIVER, S-9, AROCLOR 1254, Method: SPIRAL ASSAY
  mutagenic call: inactive; negative
Test System: AMES SALMONELLA TYPHIMURIUM, Strain/Indicator: TA100, Metabolic Activation: RAT, LIVER, S-9, AROCLOR 1254, Method: STANDARD PLATE
  mutagenic call: active; positive
Test System: AMES SALMONELLA TYPHIMURIUM, Strain/Indicator: TA1535, Metabolic Activation: NONE, Method: SPIRAL ASSAY
  mutagenic call: active; positive
Test System: AMES SALMONELLA TYPHIMURIUM, Strain/Indicator: TA1535, Metabolic Activation: NONE, Method: STANDARD PLATE
  mutagenic call: active; positive
Test System: AMES SALMONELLA TYPHIMURIUM, Strain/Indicator: TA1535, Metabolic Activation: RAT, LIVER, S-9, AROCLOR 1254, Method: SPIRAL ASSAY
  mutagenic call: active; positive
Test System: AMES SALMONELLA TYPHIMURIUM, Strain/Indicator: TA1535, Metabolic Activation: RAT, LIVER, S-9, AROCLOR 1254, Method: STANDARD PLATE
  mutagenic call: active; positive
Test System: AMES SALMONELLA TYPHIMURIUM, Strain/Indicator: TA1537, Metabolic Activation: NONE, Method: SPIRAL ASSAY
  mutagenic call: inactive; negative
Test System: AMES SALMONELLA TYPHIMURIUM, Strain/Indicator: TA1537, Metabolic Activation: NONE, Method: STANDARD PLATE
  mutagenic call: active; positive
Test System: AMES SALMONELLA TYPHIMURIUM, Strain/Indicator: TA1537, Metabolic Activation: RAT, LIVER, S-9, AROCLOR 1254, Method: SPIRAL ASSAY
  mutagenic call: inactive; negative
Test System: AMES SALMONELLA TYPHIMURIUM, Strain/Indicator: TA1537, Metabolic Activation: RAT, LIVER, S-9, AROCLOR 1254, Method: STANDARD PLATE
  mutagenic call: active; positive
Test System: AMES SALMONELLA TYPHIMURIUM, Strain/Indicator: TA1538, Metabolic Activation: RAT, LIVER, S-9, AROCLOR 1254, Method: STANDARD PLATE
  mutagenic call: active; positive
Test System: AMES SALMONELLA TYPHIMURIUM, Strain/Indicator: YG7100, Metabolic Activation: NONE, Method: PREINCUBATION
  mutagenic call: inactive; negative
Test System: AMES SALMONELLA TYPHIMURIUM, Strain/Indicator: YG7104, Metabolic Activation: NONE, Method: PREINCUBATION
  mutagenic call: active; positive
Test System: AMES SALMONELLA TYPHIMURIUM, Strain/Indicator: YG7108, Metabolic Activation: NONE, Method: PREINCUBATION
  mutagenic call: active; positive
Test System: AMES SALMONELLA TYPHIMURIUM, Strain/Indicator: YG7112, Metabolic Activation: NONE, Method: PREINCUBATION
  mutagenic call: active; positive
Test System: AMES SALMONELLA TYPHIMURIUM, Strain/Indicator: YG7113, Metabolic Activation: NONE, Method: PREINCUBATION
  mutagenic call: active; positive
Test System: AMES SALMONELLA TYPHIMURIUM, Strain/Indicator: YG7119, Metabolic Activation: NONE, Method: PREINCUBATION
  mutagenic call: inactive; negative
Test System: CHINESE HAMSTER OVARY, Strain/Indicator: CHO-K1-BH4 (HGPRT)/6-THIOGUANINE, Metabolic Activation: NONE, Method: LIQUID SUSPENSION
  mutagenic call: active; positive
Test System: CHINESE HAMSTER OVARY, Strain/Indicator: CHO-K1-BH4 (HGPRT)/6-THIOGUANINE, Metabolic Activation: NONE, Method: SUSPENSION/PLATE
  mutagenic call: active; positive
Test System: CHINESE HAMSTER OVARY, Strain/Indicator: CHO-K1-BH4 (HGPRT), Metabolic Activation: NONE, Method: MONOLAYER
  mutagenic call: active; positive
Test System: CHINESE HAMSTER OVARY, Strain/Indicator: CHO-K1-BH4 (HGPRT), Metabolic Activation: NONE, Method: SUSPENSION/PLATE
  mutagenic call: active; positive
Test System: CHINESE HAMSTER V-79, Strain/Indicator: V-79 (HGPRT)/6-THIOGUANINE, Metabolic Activation: NONE
  mutagenic call: active; positive
Test System: CHINESE HAMSTER V-79, Strain/Indicator: V-79 (HPRT)/6-THIOGUANINE, Metabolic Activation: NONE, Method: FLUCTUATION TEST
  mutagenic call: active; positive
Test System: CHINESE HAMSTER V-79, Strain/Indicator: V-79-MZ (HPRT)/6-THIOGUANINE, Metabolic Activation: NONE
  mutagenic call: active; positive
Test System: CHINESE HAMSTER V-79, Strain/Indicator: V-79-UL (HPRT)/6-THIOGUANINE, Metabolic Activation: NONE
  mutagenic call: active; positive
Test System: CHINESE HAMSTER V-79, Strain/Indicator: V-79/6-THIOGUANINE, Metabolic Activation: NONE, Method: FLASK ASSAY
  mutagenic call: active; positive
Test System: CHINESE HAMSTER V-79, Strain/Indicator: V-79/6-THIOGUANINE, Metabolic Activation: NONE, Method: LIQUID SUSPENSION
  mutagenic call: active; positive
Test System: CHINESE HAMSTER V-79, Strain/Indicator: V-79/6-THIOGUANINE, Metabolic Activation: NONE, Method: STANDARD PLATE
  mutagenic call: active; positive
Test System: CHINESE HAMSTER V-79, Strain/Indicator: V-79/6-THIOGUANINE, Metabolic Activation: NONE, Method: SUSPENSION/PLATE
  mutagenic call: active; positive
Test System: CHINESE HAMSTER V-79, Strain/Indicator: V-79/8-AZAGUANINE, Metabolic Activation: NONE, Method: STANDARD PLATE
  mutagenic call: active; positive
Test System: CHINESE HAMSTER V-79, Strain/Indicator: V-79/8-AZAGUANINE, Metabolic Activation: NONE, Method: SUSPENSION/PLATE
  mutagenic call: active; positive
Test System: CHINESE HAMSTER V-79, Strain/Indicator: V-79/OUABAIN, Metabolic Activation: NONE, Method: STANDARD PLATE
  mutagenic call: active; positive
Test System: CHINESE HAMSTER V-79, Strain/Indicator: V-79/OUABAIN, Metabolic Activation: NONE, Method: SUSPENSION/PLATE
  mutagenic call: active; positive
Test System: CHO/HGPRT, Strain/Indicator: CHO-K1-BH4, Metabolic Activation: MOUSE, IN VIVO, Method: HOST-MEDIATED
  mutagenic call: active; positive
Test System: E. COLI, Strain/Indicator: WP2, Metabolic Activation: NONE, Method: STANDARD PLATE
  mutagenic call: active; positive
Test System: E. COLI, Strain/Indicator: WP2, Metabolic Activation: RAT, LIVER, S-9, AROCLOR 1254, Method: STANDARD PLATE
  mutagenic call: active; positive
Test System: E. COLI, Strain/Indicator: WP2 UVRA, Metabolic Activation: HAMSTER, LIVER, S-9, AROCLOR 1254, Method: STANDARD PLATE
  mutagenic call: inactive; negative
Test System: E. COLI, Strain/Indicator: WP2 UVRA, Metabolic Activation: HAMSTER, LIVER, S-9, Method: STANDARD PLATE
  mutagenic call: inactive; negative
Test System: E. COLI, Strain/Indicator: WP2 UVRA, Metabolic Activation: MOUSE, LIVER, S-9, AROCLOR 1254, Method: STANDARD PLATE
  mutagenic call: inactive; negative
Test System: E. COLI, Strain/Indicator: WP2 UVRA, Metabolic Activation: MOUSE, LIVER, S-9, Method: STANDARD PLATE
  mutagenic call: inactive; negative
Test System: E. COLI, Strain/Indicator: WP2 UVRA, Metabolic Activation: RAT, LIVER, S-9, Method: STANDARD PLATE
  mutagenic call: inactive; negative
Test System: MOUSE LYMPHOMA, Strain/Indicator: L5178Y (HGPRT)/6-THIOGUANINE, Metabolic Activation: NONE, Method: SUSPENSION/PLATE
  mutagenic call: active; positive
Test System: MOUSE LYMPHOMA, Strain/Indicator: L5178Y (TK+/TK-)/TRIFLUOROTHYMIDINE, Metabolic Activation: NONE, Method: SUSPENSION/PLATE
  mutagenic call: active; positive
Test System: MOUSE LYMPHOMA, Strain/Indicator: L5178Y (TK+/TK-), Metabolic Activation: NONE, Method: FLUCTUATION TEST
  mutagenic call: active; positive
Test System: MOUSE LYMPHOMA, Strain/Indicator: L5178Y (TK+/TK-), Metabolic Activation: NONE, Method: IN SITU
  mutagenic call: active; positive
Test System: MOUSE LYMPHOMA, Strain/Indicator: L5178Y (TK+/TK-), Metabolic Activation: NONE, Method: LIQUID SUSPENSION
  mutagenic call: active; positive
Test System: MOUSE LYMPHOMA, Strain/Indicator: L5178Y (TK+/TK-), Metabolic Activation: RAT, LIVER, S-9, AROCLOR 1254, Method: SUSPENSION/PLATE
  mutagenic call: active; positive
Test System: UDS HUMAN CELLS, Strain/Indicator: THY INCORP (NON-S-PHASE), Metabolic Activation: NONE, Method: LIQUID SCINTILLATION COUNTING
  mutagenic call: active; positive
Test System: UDS HUMAN LYMPHOCYTES, Strain/Indicator: THY INCORP (NON-S-PHASE), Metabolic Activation: NONE, Method: LIQUID SCINTILLATION COUNTING
  mutagenic call: active; positive
Test System: UDS RODENT PRIMARY CELLS, Strain/Indicator: THY INCORP (NON-S-PHASE), Metabolic Activation: NONE, Method: LIQUID SCINTILLATION COUNTING
  mutagenic call: active; positive
